Each structure is given as a SMILES string. *1 amine or outer side, *2 acyl side, *3 side chain or, on linkers, in order; H or OH if unused. Where a SMILES comes first, the peptide text is derived from it. Bridges are numbered along the chain shown (N, C = ends). [ ]: non-standard residue; d: D form. TATA = O=C(CC[*:1])N1CN(C(=O)CC[*:2])CN(C(=O)CC[*:3])C1; hArg = N=C(N)NCCCC[C@H](N)C(=O)O; Pip = O=C(O)[C@@H]1CCCCN1; βAla = NCCC(=O)O; Sar = CNCC(=O)O

The test has as its target T1, human Nectin-4 (Homo sapiens, UniProt Q96NY8).
T1 sequence (Q96NY8 32-510): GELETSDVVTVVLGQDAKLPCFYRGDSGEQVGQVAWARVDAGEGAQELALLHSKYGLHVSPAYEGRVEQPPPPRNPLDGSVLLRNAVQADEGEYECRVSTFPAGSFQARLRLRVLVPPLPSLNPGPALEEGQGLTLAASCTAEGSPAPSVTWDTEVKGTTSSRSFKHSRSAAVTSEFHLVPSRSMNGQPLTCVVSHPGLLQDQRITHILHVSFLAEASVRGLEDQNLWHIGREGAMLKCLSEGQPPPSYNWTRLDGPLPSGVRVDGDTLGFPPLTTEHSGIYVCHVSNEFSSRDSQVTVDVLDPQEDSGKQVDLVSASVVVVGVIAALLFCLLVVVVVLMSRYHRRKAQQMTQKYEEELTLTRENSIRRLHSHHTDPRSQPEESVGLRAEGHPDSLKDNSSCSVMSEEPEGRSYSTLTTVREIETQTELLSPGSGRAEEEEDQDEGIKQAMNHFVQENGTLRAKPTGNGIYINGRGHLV
In words: Nectin-4 competition binding assay (fluorescence polarisation). The following applies: competition with fluorescent peptide SEQ ID NO: 217; read-out: Ki. How it is done:
Peptides were diluted to an appropriate concentration in assay buffer as described in the direct binding assay with a maximum of 5% DMSO, then serially diluted 1 in 2. Five μL of diluted peptide was added to the plate followed by 10 μL of human Nectin-4, then 10 μL fluorescent peptide added. Measurements were conducted as for the direct binding assay, however the gain was determined prior to the first measurement. Data analysis was in Systat Sigmaplot version 12.0 where the mP values were fit to a user defined cubic equation to generate a Ki value: • f=ymin+(ymax−ymin)/Lig*((Lig*((2*((Klig+Kcomp+Lig+Comp-Prot*c)^2-3*(Kcomp*(Lig-Prot*c)+Klig*(Comp-Prot*c)+Klig*Kcomp))^0.5*COS(ARCCOS((−2*(Klig+Kcomp+Lig+Comp-Prot*c)^3+9*(Klig+Kcomp+Lig+Comp-Prot*c)*(Kcomp*(Lig-Prot*c)+Klig*(Comp-Prot*c)+Klig*Kcomp)−27*(−1*Klig*Kcomp*Prot*c)/(2*((((Klig+Kcomp+Lig+Comp-Prot*c)^2−3*(Kcomp*(Lig-Prot*c)+Klig*(Comp-Prot*c)+Klig*Kcomp))^3)^0.5)))/3))−(Klig+Kcomp+Lig+Comp-Prot*c)))/((3*Klig)+((2*((Klig+Kcomp+Lig+Comp-Prot*c)^2−3*(Kcomp*(Lig-Prot*c)+Klig*(Comp-Prot*c)+Klig*Kcomp))^0.5*COS (ARCCOS ((−2*(Klig+Kcomp+Lig+Comp-Prot*c)^3+9*(Klig+Kcomp+Lig+Comp-Prot*c)*(Kcomp*(Lig-Prot*c)+Klig*(Comp-Prot*c)+Klig*Kcomp)-27*(−1*Klig*Kcomp*Prot*c))/(2*((((Klig+Kcomp+Lig+Comp-Prot*c)^2-3*(Kcomp*(Lig-Prot*c)+Klig*(Comp-Prot+c)+Klig*Kcomp))^3)^0.5))/3)−(Klig+Kcomp+Lig+Comp-Prot*c)))).
“Lig”, “KLig” and “Prot” were all defined values relating to: fluorescent peptide concentration, the Kd of the fluorescent peptide and Nectin concentration respectively.
For orientation: In fluorescence polarisation assays a small probe gives low polarisation when free and higher when bound to something large.
Consider `CC[C@H](C)[C@@H]1NC(=O)[C@@H]2CCCN2C(=O)[C@H](Cc2c[nH]c3ccccc23)NC(=O)[C@H](C)NC(=O)[C@H](Cc2c[nH]c3ccccc23)NC(=O)[C@H](CC(N)=O)NC(=O)[C@H](CCCCN)NC(=O)[C@H](CCSC)NC(=O)[C@@H]2CSCCC(=O)N3CN(CN(C3)C(=O)CCSC[C@H](NC(=O)[C@H](C)N)C(=O)N3CCC[C@H]3C(=O)N[C@@H](Cc3ccccc3)C(=O)NCC(=O)N2)C(=O)CCSC[C@@H](C(=O)N[C@H](C(=O)N[C@@H](CC(N)=O)C(=O)N[C@@H](CCCCN)C(N)=O)[C@@H](C)O)NC(=O)[C@H](Cc2c[nH]c3ccccc23)NC1=O` [BCY7424, A-(SEQ ID NO: 30)-TNK] (H-ACPFGCMKNWAWPIWCTNK-NH2; linker 2-6-16 via TATA; N-terminus and C-terminus assumed), for which the Ki was 0.562 µM.
The result for `CC[C@H](C)[C@@H]1NC(=O)[C@@H]2CCCN2C(=O)[C@H](CC(=O)O)NC(=O)[C@H](CO)NC(=O)[C@H](Cc2c[nH]c3ccccc23)NC(=O)[C@H](CC(N)=O)NC(=O)[C@H](CCCCN)NC(=O)[C@H](CCSC)NC(=O)[C@@H]2CSCCC(=O)N3CN(CN(C3)C(=O)CCSC[C@H](NC(C)=O)C(=O)N3CCC[C@H]3C(=O)N[C@@H](Cc3ccccc3)C(=O)NCC(=O)N2)C(=O)CCSC[C@@H](C(N)=O)NC(=O)[C@H](Cc2c[nH]c3ccccc23)NC1=O` [BCY7540, Ac-(SEQ ID NO: 8)] (Ac-CPFGCMKNWSDPIWC-NH2; linker 1-5-15 via TATA; C-terminus assumed) reads 0.357 µM; that for `CC[C@H](C)[C@@H]1NC(=O)[C@@H]2CCCN2C(=O)[C@H](Cc2c[nH]c3ccccc23)NC(=O)[C@H](CO)NC(=O)[C@H](Cc2c[nH]c3ccccc23)NC(=O)[C@H](CC(N)=O)NC(=O)[C@H](CCCCNC(=N)N)NC(=O)[C@H](CCSC)NC(=O)[C@@H]2CSCCC(=O)N3CN(CN(C3)C(=O)CCSC[C@H](NC(=O)CN(C)C(=O)CN(C)C(=O)CN(C)C(=O)CN(C)C(=O)CN(C)C(=O)CCNC(C)=O)C(=O)N3CCC[C@H]3C(=O)N[C@@H](Cc3ccccc3)C(=O)N[C@H](CC(=O)O)C(=O)N2)C(=O)CCSC[C@@H](C(N)=O)NC(=O)[C@H](Cc2c[nH]c3ccccc23)NC1=O` [BCY7558, Ac-[B-Ala][Sar5]-(SEQ ID NO: 76)] (Ac-[βAla][Sar][Sar][Sar][Sar][Sar]CPF[dD]CM[hArg]NWSWPIWC-NH2; linker 7-11-21 via TATA), 0.0219 µM.
The figure for `CC[C@H](C)[C@@H]1NC(=O)[C@@H]2CCCN2C(=O)[C@H](Cc2ccccc2)NC(=O)[C@H](CO)NC(=O)[C@H](Cc2c[nH]c3ccccc23)NC(=O)[C@H](CC(N)=O)NC(=O)[C@H](CCCCN)NC(=O)[C@H](CCSC)NC(=O)[C@@H]2CSCCC(=O)N3CN(CN(C3)C(=O)CCSC[C@H](NC(C)=O)C(=O)N3CCC[C@H]3C(=O)N[C@@H](Cc3ccccc3)C(=O)NCC(=O)N2)C(=O)CCSC[C@@H](C(N)=O)NC(=O)[C@H](Cc2c[nH]c3ccccc23)NC1=O` [BCY7589, Ac-(SEQ ID NO: 84)] (Ac-CPFGCMKNWSFPIWC-NH2; linker 1-5-15 via TATA; C-terminus assumed) is 0.0345 µM; for `CC[C@H](C)[C@@H]1NC(=O)[C@@H]2CCCN2C(=O)[C@H](Cc2ccc(O)cc2)NC(=O)[C@H](CO)NC(=O)[C@H](Cc2c[nH]c3ccccc23)NC(=O)[C@H](CC(N)=O)NC(=O)[C@H](CCCCN)NC(=O)[C@H](CCSC)NC(=O)[C@@H]2CSCCC(=O)N3CN(CN(C3)C(=O)CCSC[C@H](NC(C)=O)C(=O)N3CCC[C@H]3C(=O)N[C@@H](Cc3ccccc3)C(=O)NCC(=O)N2)C(=O)CCSC[C@@H](C(N)=O)NC(=O)[C@H](Cc2c[nH]c3ccccc23)NC1=O` [BCY7590, Ac-(SEQ ID NO: 85)] (Ac-CPFGCMKNWSYPIWC-NH2; linker 1-5-15 via TATA; C-terminus assumed) it is 0.0385 µM; for `CC[C@H](C)[C@@H]1NC(=O)[C@@H]2CCCN2C(=O)[C@H](Cc2ccc3ccccc3c2)NC(=O)[C@H](CO)NC(=O)[C@H](Cc2c[nH]c3ccccc23)NC(=O)[C@H](CC(N)=O)NC(=O)[C@H](CCCCN)NC(=O)[C@H](CCSC)NC(=O)[C@@H]2CSCCC(=O)N3CN(CN(C3)C(=O)CCSC[C@H](NC(C)=O)C(=O)N3CCC[C@H]3C(=O)N[C@@H](Cc3ccccc3)C(=O)NCC(=O)N2)C(=O)CCSC[C@@H](C(N)=O)NC(=O)[C@H](Cc2c[nH]c3ccccc23)NC1=O` [BCY7592, Ac-(SEQ ID NO: 87)] it is 0.0374 µM.
With `CC[C@H](C)[C@@H]1NC(=O)[C@@H]2CCCCN2C(=O)[C@H](Cc2c[nH]c3ccccc23)NC(=O)[C@H](CO)NC(=O)[C@H](Cc2c[nH]c3ccccc23)NC(=O)[C@H](CC(N)=O)NC(=O)[C@H](CCCCN)NC(=O)[C@H](CCSC)NC(=O)[C@@H]2CSCCC(=O)N3CN(CN(C3)C(=O)CCSC[C@H](NC(C)=O)C(=O)N3CCC[C@H]3C(=O)N[C@@H](Cc3ccccc3)C(=O)NCC(=O)N2)C(=O)CCSC[C@@H](C(N)=O)NC(=O)[C@H](Cc2c[nH]c3ccccc23)NC1=O` [BCY7595, Ac-(SEQ ID NO: 90)] (Ac-CPFGCMKNWSW[Pip]IWC-NH2; linker 1-5-15 via TATA), the Ki was 0.219 µM.
The result for `CC[C@H](C)[C@@H]1NC(=O)[C@@H]2CCCN2C(=O)[C@H](Cc2c[nH]c3ccccc23)NC(=O)[C@H](CO)NC(=O)[C@H](Cc2c[nH]c3ccccc23)NC(=O)[C@H](CC(N)=O)NC(=O)[C@H](CCCCN)NC(=O)[C@H](CCSC)NC(=O)[C@@H]2CSCCC(=O)N3CN(CN(C3)C(=O)CCSC[C@H](NC(C)=O)C(=O)N3CCC[C@H]3C(=O)N[C@@H](Cc3ccccc3)C(=O)NCC(=O)N2)C(=O)CCSC[C@@H](C(N)=O)NC(=O)[C@H](Cc2ccccc2)NC1=O` [BCY7596, Ac-(SEQ ID NO: 91)] (Ac-CPFGCMKNWSWPIFC-NH2; linker 1-5-15 via TATA) reads 0.353 µM.
The figure for `CC[C@H](C)[C@@H]1NC(=O)[C@@H]2CCCN2C(=O)[C@H](Cc2c[nH]c3ccccc23)NC(=O)[C@H](CO)NC(=O)[C@H](Cc2c[nH]c3ccccc23)NC(=O)[C@H](CC(N)=O)NC(=O)[C@H](CCCCN)NC(=O)[C@H](CCSC)NC(=O)[C@@H]2CSCCC(=O)N3CN(CN(C3)C(=O)CCSC[C@H](NC(C)=O)C(=O)N3CCC[C@H]3C(=O)N[C@@H](Cc3ccccc3)C(=O)NCC(=O)N2)C(=O)CCSC[C@@H](C(N)=O)NC(=O)[C@H](Cc2ccc(O)cc2)NC1=O` [BCY7597, Ac-(SEQ ID NO: 92)] (Ac-CPFGCMKNWSWPIYC-NH2; linker 1-5-15 via TATA; C-terminus assumed) is 0.169 µM; for `CC[C@H](C)[C@@H]1NC(=O)[C@@H]2CCCN2C(=O)[C@H](Cc2c[nH]c3ccccc23)NC(=O)[C@H](CO)NC(=O)[C@H](Cc2c[nH]c3ccccc23)NC(=O)[C@H](CC(N)=O)NC(=O)[C@H](CCCCN)NC(=O)[C@H](CCSC)NC(=O)[C@@H]2CSCCC(=O)N3CN(CN(C3)C(=O)CCSC[C@H](NC(=O)[C@@H](CC(=O)O)NC(C)=O)C(=O)N3CCC[C@H]3C(=O)N[C@@H](Cc3ccccc3)C(=O)NCC(=O)N2)C(=O)CCSC[C@@H](C(N)=O)NC(=O)[C@H](Cc2c[nH]c3ccccc23)NC1=O` [BCY7606, Ac-[dD]-(SEQ ID NO: 1)] (Ac-[dD]CPFGCMKNWSWPIWC-NH2; linker 2-6-16 via TATA) it is 0.034 µM; for `CC[C@H](C)[C@@H]1NC(=O)[C@@H]2CCCN2C(=O)[C@H](Cc2c[nH]c3ccccc23)NC(=O)[C@H](CO)NC(=O)[C@H](Cc2c[nH]c3ccccc23)NC(=O)[C@H](CC(N)=O)NC(=O)[C@H](CCCCN)NC(=O)[C@H](CCSC)NC(=O)[C@@H]2CSCCC(=O)N3CN(CN(C3)C(=O)CCSC[C@H](NC(C)=O)C(=O)NCC(=O)N[C@@H](Cc3ccccc3)C(=O)NCC(=O)N2)C(=O)CCSC[C@@H](C(N)=O)NC(=O)[C@H](Cc2c[nH]c3ccccc23)NC1=O` [BCY7607, Ac-(SEQ ID NO: 94)] (Ac-CGFGCMKNWSWPIWC-NH2; linker 1-5-15 via TATA) it is 0.077 µM.

In general, Ki refers to a measure of affinity in units of concentration, obtained from inhibition or displacement.

The values above are taken from patent US12459974B2, “Bicyclic peptide ligands specific for Nectin-4” (priority 2018, dated 2025).
